The test system of series [1] is Human embryonic kidney cells (293) stably expressing firefly luciferase (Luc+). The series is described as follows: Whole cell assay: firefly luminescence as indicator of cell viability. Type of series: cell-based. The procedure:
(§1) To determine the effect of organic compounds on cell viability and to determine the ability of such compounds to reduce autoluminescence in the presence of living cells, the following experiment was performed. Human embryonic kidney cells (293, ATCC, Rockville, Md.) were used to generate a cell line that stably expresses the firefly luciferase (Luc+) gene. This stable cell line was made using the pCl-neo vector (Promega Corporation, Madison Wis., USA) and inserting the Luc+ gene between the Xba I and Sal I sites. The stable cell line was prepared using standard methods and the transformed cells were grown in wells of a microtiter plate in the presence of DMEM medium containing 10% FBS and 0.15 mg/ml G418. For experimental purposes, duplicate plates of cells were prepared using 96 well microtiter plates. One plate was used to examine viability, and the other plate was used to examine the effect on autoluminescence.
To examine the effect of the organic compounds in cell viability, the media was removed from the cells and replaced with media containing the substrate for firefly luciferase, beetle luciferin, and the organic compounds at various concentrations. Passive diffusion of luciferin across the cell membrane together with the ATP oxygen and luciferase enzyme already contained within the cell, results in light production. Whereas, in compromised or damaged cells, intracellular ATP concentration is rapidly depleted, decreasing the firefly luminescence. The level of luminescence was compared to controls containing only luciferin to identify the effect of the compounds, if any, on light output as an indicator of cell viability.
(§2) Half of the microtiter plate contained no cells. To these wells, the same reagents were added as to the cell counterpart to measure cell-independent luminescence (i.e. background luminescence). The reagents (media with luciferin or coelenterazine, with or without compounds at various concentrations) were prepared as follows:
a) Reagent to Examine Firefly Luminescence (Cell Viability)
Luciferin substrate available from Promega Corporation, Madison Wis., USA was initially prepared in 10 mM sodium phosphate buffer, pH 7.4 as a 100 mM stock. This luciferin stock was used to make DMEM solution containing a final concentration of 2 mM luciferin.
Thiourea and 1-allyl-3-(2-hydroxyethyl)-2-thiourea were dissolved directly in this solution (DMEM/luciferin) to a final concentration of 30 mM. These were subsequently diluted to contain final compound concentrations of 10 mM and 1 mM.
Another compound 6-aza-thio-thymidine was dissolved in DMSO as a 750 mM stock. The 6-aza-thio-thymidine was subsequently added to the DMEM/luciferin reagent at a final concentration of 30 mM, 10 mM, and 1 mM, while maintaining a final DMSO concentration of 4%. A DMEM/luciferin reagent was used as the control with which to compare the effect of the compound and was also made to contain a final DMSO concentration of 4%.
Since it is believed that DMSO may help organic molecules permeat cell membranes, an additional control was included that consisted of thiourea (10 mM) reconstituted in DMSO (4%).
(§3) The cell culture medium was removed from the cells and replaced with medium containing substrate (+/−compound) and luminescence was measured immediately. […] Fold reduction in autoluminescence was calculated by dividing the background-subtracted autoluminescence in minus compound controls by the background-subtracted autoluminescence containing the compounds.

Series [2] relates to coelenterazine autoluminescence in Human embryonic kidney cells (293). Kind of series: Whole cell assay: reduction of coelenterazine autoluminescence in the presence of living cells. The class given is cell-based. As to the method:
as §1
To determine the ability of the organic compounds to reduce autoluminescence, the media was removed from the cells and replaced with media containing the compounds at various concentrations and coelenterazine. Since there is no Renilla luciferase enzyme being expressed in these cells, the only luminescence observed is autoluminescence. The level of autoluminescence was compared to controls containing only coelenterazine to identify the effect of the compounds on reducing autoluminescence.
as §2
b) Reagent to Examine Reduction in Autoluminescence
Coelenterazine substrate was initially dissolved in Stop & Glob Reagent Solvent (both available from Promega Corporation, Madison Wis., USA) as a 30 mM stock. This coelenterazine stock was used to make DMEM media containing 0.6 mM coelenterazine as the final concentration. DMEM/coelenterazine reagents were made in a similar fashion as the DMEM/luciferin reagents described in a).
as §3

The procedure of series [3]:
(§4) The enzymatic luminescence measurement may have an autoluminescence component.
(§5) Format B Experiments were performed in a reaction volume of 150 μl Matthew's Buffer (referred to herein as MB) as either a standard MB composition or a modified MB composition as described below. As with Format A, reactions with and without Renilla luciferase were carried out to observe the effect of the organic compounds on assay sensitivity.
(§6) 1× Matthew's buffer standard composition consists of:
(§7) In order to observe the autoluminescence enhanced only by the detergent, for the majority of the experiments, BSA was replaced with porcine gelatin as the enzyme stabilizer at a final concentration of 0.15 mg/ml or 0.45 mg/ml. Taking all the variants into account the format can be sub-divided in 4 different versions:
(§8) Reactions were carried out in triplicate by adding each of the 50 μl portions to microtiter plate wells and mixing. The resulting relative light units generated per well was measured immediately using a Dynex MLX Microtiter plate luminometer or a Wallac 1450 MicroBeta Trilux plate luminometer (1 second/well) or alternatively, the plate was incubated at 22° C. and read after 5 minutes in the same fashion.
(§9) a) fold-decrease in non-enzymatic autoluminescence measurement in the presence of the compound when compared to the absence of the compound and, […]

Series [4] concerns the target T1, Renilla luciferase (Renilla reniformis, UniProt P27652). The procedure:
as §4, §5, §6, §7, §8
(§10) b) effect of the compound on enzymatic luminescence measurement in the presence of the compound when compared to control samples lacking only the compound.

Series [5] concerns the target T1, Renilla luciferase. Conditions: Format A. As to the method:
as §4
(§11) Format A Assays were performed in the presence of Steady Glo® reagent (SG) and Stop & Glo® reagent (S+G), (Promega Corporation, Madison Wis.). A total reaction volume of 150 μl consisted of:
(§12) 50 μl F-12 (Ham) media+1 mg/ml gelatin (with or without enzyme^1)
(§13) 50 μl S+G (containing substrate^2)
(§14) 50 μl SG ^1 Renilla luciferase enzyme was added to F-12 cell culture media containing 1% gelatin, to a concentration of approximately 2.5 ng/50 μl media. Reactions in the absence of Renilla luciferase reveal the effect of the compound on autoluminescence while reactions in the presence of enzyme reveal the effect of the compound on Renilla luciferase-catalyzed luminescence.^2 The S+G reagent was prepared as per manufacturer's instructions, with the exception that for these experiments a S+G solvent three times more concentrated than normal was used to resuspend the S+G substrate.
(§15) The compound to be tested was re-suspended in either SG or S+G reagent to a final concentration of SG or S+G of (1×). The compound was added so the final concentration in the 150 μl total volume would be that listed in Table 1 and the reagent was diluted to the a final of 50 μl with water. For controls, the SG or S+G reagent was brought up to 50 μl with water or with the solvent used to dissolve the compound of interest. For example, if a compound needed to be dissolved in DMSO (dimethyl sulphoxide), an equal volume of DMSO was added to the control reaction. Unless otherwise indicated, the compounds were first dissolved in water.
(§16) For each concentration of a particular compound, a mixture containing all of the components in sufficient amounts for four reactions (i.e. 200 μl media, 200 μl SG, 200 μl S+G) was assembled. From this mixture, 150 μl was dispensed into triplicate wells on a 96-well plate. Alternatively, reactions were sometimes assembled in each well of the plate by adding each of the 50 μl portions and mixing. The plate was incubated at 22° C. and after 5 minutes the luminescence was measured using a Dynex plate luminometer (1 second measurement per well).
as §10

The procedure of series [6]:
as §4, §11, §12, §13, §14, §15, §16, §9
This is another data set of the same source.

[7] abbreviates: 1 mM compound, no additives to media.
[8] abbreviates: 10 mM compound, no additives to media.
Where [9] appears, read: 30 mM compound, no additives to media.
[10] abbreviates: 1 mM compound, 4% DMSO in media.
Where [11] appears, read: 10 mM compound, 4% DMSO in media.
Setting [12] is: 30 mM compound, 4% DMSO in media.
Setting [13] is: 3 mM compound, Format B3 (gelatin, detergent).
Setting [14] is: 3 mM compound, Format B3 with Tween-20.
Where [15] appears, read: 3 mM compound, Format B4 + 10 mM sodium hydrosulfate.
[16] abbreviates: 10 mM compound, Format B4 (gelatin, no detergent).
[17] abbreviates: 100 mM compound, Format B3 (gelatin, detergent).
Where [18] appears, read: 100 mM compound, Format B4 (gelatin, no detergent).
Setting [19] is: 10 mM compound, Format B3 (gelatin, detergent).
Where [20] appears, read: 30 mM compound, Format B3 (gelatin, detergent).
Setting [21] is: 30 mM compound, Format B4 (gelatin, no detergent).

The structures appear in SMILES notation. Read-outs that look alike come from different tables or passages of the source.

T1 sequence (P27652 whole entry): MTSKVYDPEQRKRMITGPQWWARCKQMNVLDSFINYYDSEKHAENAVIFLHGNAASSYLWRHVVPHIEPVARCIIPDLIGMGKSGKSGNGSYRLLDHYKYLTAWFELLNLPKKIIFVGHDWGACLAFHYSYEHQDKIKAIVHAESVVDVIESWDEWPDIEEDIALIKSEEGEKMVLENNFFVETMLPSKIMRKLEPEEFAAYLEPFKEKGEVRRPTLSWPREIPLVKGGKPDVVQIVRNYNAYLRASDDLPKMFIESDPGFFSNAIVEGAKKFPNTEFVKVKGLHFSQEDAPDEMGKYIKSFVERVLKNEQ

Take `C=CCNC(=S)NCCO` [1-Allyl-3-(2-hydroxyethyl)-2-thiourea, 1-allyl-3-(2-hydroxyethyl)-2-thiourea]: the “Effects on firefly luminescence” value in series [1] (setting [7]) is “No”; in series [1] (setting [8]) it was “Yes, decreases”; in series [1] (setting [9]) it was “Yes, decreases”. Also, the “Fold Decrease in Autoluminescence” value in series [2] (setting [7]) was determined as 3.5 fold; in series [2] (setting [8]), 12 fold; in series [2] (setting [9]), 35 fold.

Consider `Cc1nn([C@H]2C[C@H](O)[C@@H](CO)O2)c(=S)[nH]c1=O` [6-aza-thio-thymidine], for which the “Effects on firefly luminescence” value in series [1] (setting [10]) is reported as “No”; in series [1] (setting [11]), “No”; in series [1] (setting [12]), “Yes, decreases”. The “Fold Decrease in Autoluminescence” value in series [2] (setting [10]) came to 3 fold; in series [2] (setting [11]), 23 fold; in series [2] (setting [12]), 525 fold.

`NC(N)=S` [Compound 1]: the Fold decrease autoluminescence is given as 120 fold in series [3] (setting [13]); 21.6 fold in series [3] (3 mM compound, Format B3 + 10 mM sodium hydrosulfate); 100 fold in series [3] (setting [14]); 6 fold in series [3] (3 mM compound, Format B3 with Zwittergent); 2.6 fold in series [3] (setting [15]); 2 fold in series [3] (setting [16]). In addition, the Fold decrease autoluminescence was 500 fold in series [3] (50 mM compound, Format B3 + 17% DMSO); 15 fold in series [3] (50 mM compound, Format B4 + 17% DMSO); 290 fold in series [3] (setting [17]); 8.5 fold in series [3] (setting [18]); 2 fold in series [3] (316 mM compound, Format B2 (BSA, no detergent)); 15 fold in series [6] (33 mM compound, Format A). Moreover, the Effect on luminescence entry on Renilla luciferase [4] (setting [13]), at Renilla luciferase [4] (setting [14]), on Renilla luciferase [4] (setting [15]), on Renilla luciferase [4] (setting [17]) and at Renilla luciferase [5] (33 mM compound) was “No effect” in each case.

Consider `NC(N)=[Se]` [Compound 2], for which the Fold decrease autoluminescence in series [3] (setting [19]) was 70 fold; in series [6] (10 mM compound, Format A), 100 fold. The Effect on luminescence result at Renilla luciferase [4] (setting [19]) and at Renilla luciferase [5] (10 mM compound) was “No effect” throughout.

Turning to `CC(N)=S` [Compound 3], the Fold decrease autoluminescence is 545 fold in series [3] (33 mM compound, Format B3 (gelatin, detergent)); 3.4 fold in series [3] (33 mM compound, Format B4 (gelatin, no detergent)); 100 fold in series [6] (33 mM compound, Format A).

With `C=CCNC(=S)NCCO` [Compound 4], the Fold decrease autoluminescence stood at 500 fold in series [3] (setting [20]); 3.9 fold in series [3] (setting [21]); 3 fold in series [6] (10 mM compound, Format A). Also, the Effect on luminescence result at Renilla luciferase [5] (10 mM compound) is reported as “No effect”.

In the case of `S=C(Nc1ccccc1)Nc1cscn1` [Compound 5], the Fold decrease autoluminescence in series [6] (10 mM compound, Format A) is reported as 115 fold.

In the case of `Cc1c[nH]c(=S)[nH]c1=O` [Compound 6], the Fold decrease autoluminescence in series [3] (32 mM compound, Format B3 + 33% DMSO) worked out at 660 fold; in series [3] (32 mM compound, Format B4 + 33% DMSO), 120 fold; in series [6] (32 mM compound, Format A + 17% DMSO) it was 65 fold.

On to `CON=C(C(=O)O)c1csc(N)n1` [Compound 7], for which the Fold decrease autoluminescence turned out to be 7 fold in series [3] (setting [20]) and 6.2 fold in series [3] (setting [21]).

As for `OC(CS)CC(O)CS` (centres unmarked) [Compound 9], the Fold decrease autoluminescence in series [3] (setting [20]) turned out to be 13 fold; in series [3] (setting [21]), 2.5 fold; in series [3] (setting [18]) it was 3 fold. The Effect on luminescence entry on Renilla luciferase [4] (setting [21]) is “No effect”.

Take `CC(=O)NC(CS)C(=O)O` (centres unmarked) [Compound 11]: the figures for the Fold decrease autoluminescence in series [3] (setting [20]), in series [3] (setting [21]) and in series [3] (setting [18]) were 2 fold, 2.3 fold and 3.7 fold, respectively. The Effect on luminescence entry on Renilla luciferase [4] (setting [20]) was “No effect”.

Take `N#C[S-].[K+]` [K SCN]: the Fold decrease autoluminescence was determined as 55 fold in series [3] (setting [19]) and 1.7 fold in series [3] (setting [16]). The Effect on luminescence result at Renilla luciferase [4] (setting [19]) was “No effect”.

For the compound `NC(N)=S` [thiourea], the “Effects on firefly luminescence” value in series [1] (setting [7]) is reported as “No”; in series [1] (setting [11]), “No”; in series [1] (setting [8]) it was “No”; in series [1] (setting [9]), “Yes, decreases”. Besides, the “Fold Decrease in Autoluminescence” value is reported as 3.4 fold in series [2] (setting [7]), 12 fold in series [2] (setting [11]), 16 fold in series [2] (setting [8]) and 40 fold in series [2] (setting [9]).

The values above are taken from patent US7108996B2, “Method for increasing luminescence assay sensitivity” (Promega Corporation, priority 2000, dated 2006).
